US10975056B2 (GlaxoSmithKline Intellectual Property Development Limited, priority 2016, dated 2021)
pEC50, pIC50: −log10 of the molar value. Where a name gives a salt, the structure may show the parent alone. Read-outs that look alike come from different tables or passages of the source.

How the values were obtained:
MV-4-11 AML cells = test: MV-4-11 cell proliferation assay (CellTiter-Glo, 6 days); assay type: cell-based; settings: Homo sapiens, MV4-11, 144 h; 6 days treatment; binning as pXC50; read-out: MV4-11 Anti-proliferative activity (EC50 category)
Method: MV-4-11 Anti-Proliferative Activity (pEC50 Category)
Cell proliferation assay. Optimal cell seeding density was determined empirically for MV-4-11 AML cells by examining the growth of a wide range of seeding densities in a 384-well format to identify conditions that permitted maximal and continued proliferation for 6 days. MV-4-11 cells were plated in duplicate plates 24 hours before treatment with a 20-point two-fold dilution series of compound or 0.15% DMSO. Plates were incubated for 6 days at 37° C. in 5% CO2. Cells were then lysed with CellTiter-Glo (CTG) (Promega) and chemiluminescent signal was detected with an appropriate microplate reader. In addition, an untreated plate of cells was harvested at the time of compound addition (T0) to quantify the initial cell density. CTG values obtained after 6 days of treatment were expressed as a percent of the T0 value and plotted against compound concentration. Data were fit with a four parameter equation to generate a concentration response curve from which growth IC50 values were calculated.

[1] = test system: erythroid progenitor cells (EPCs); test: Fetal hemoglobin (HbF) ELISA in day 7 erythroid progenitor cells; assay type: cell-based, human; settings: Homo sapiens, Erythroid progenitor cell, HbF ELISA, day 7 EPCs, 5 days; read-out: EPC ELISA (pEC50 category) (converted);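 note: for fetal hemoglobin induction normalized to vehicle-treated cells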
In short: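 Read-out was OD450 from an HRP/TMB sandwich ELISA on lysates, normalized to DMSO-only control wells. Thawed day 7 EPCs from human marrow CD34+ cells had been treated for 5 days at 37° C with Compound A, 22 concentrations […].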

DNMT1 = DNMT1 (Homo sapiens, UniProt P26358); test: DNMT1 biochemical activity, breaklight assay and/or SPA assay
Chain of DNMT1 (P26358 whole entry, looked up): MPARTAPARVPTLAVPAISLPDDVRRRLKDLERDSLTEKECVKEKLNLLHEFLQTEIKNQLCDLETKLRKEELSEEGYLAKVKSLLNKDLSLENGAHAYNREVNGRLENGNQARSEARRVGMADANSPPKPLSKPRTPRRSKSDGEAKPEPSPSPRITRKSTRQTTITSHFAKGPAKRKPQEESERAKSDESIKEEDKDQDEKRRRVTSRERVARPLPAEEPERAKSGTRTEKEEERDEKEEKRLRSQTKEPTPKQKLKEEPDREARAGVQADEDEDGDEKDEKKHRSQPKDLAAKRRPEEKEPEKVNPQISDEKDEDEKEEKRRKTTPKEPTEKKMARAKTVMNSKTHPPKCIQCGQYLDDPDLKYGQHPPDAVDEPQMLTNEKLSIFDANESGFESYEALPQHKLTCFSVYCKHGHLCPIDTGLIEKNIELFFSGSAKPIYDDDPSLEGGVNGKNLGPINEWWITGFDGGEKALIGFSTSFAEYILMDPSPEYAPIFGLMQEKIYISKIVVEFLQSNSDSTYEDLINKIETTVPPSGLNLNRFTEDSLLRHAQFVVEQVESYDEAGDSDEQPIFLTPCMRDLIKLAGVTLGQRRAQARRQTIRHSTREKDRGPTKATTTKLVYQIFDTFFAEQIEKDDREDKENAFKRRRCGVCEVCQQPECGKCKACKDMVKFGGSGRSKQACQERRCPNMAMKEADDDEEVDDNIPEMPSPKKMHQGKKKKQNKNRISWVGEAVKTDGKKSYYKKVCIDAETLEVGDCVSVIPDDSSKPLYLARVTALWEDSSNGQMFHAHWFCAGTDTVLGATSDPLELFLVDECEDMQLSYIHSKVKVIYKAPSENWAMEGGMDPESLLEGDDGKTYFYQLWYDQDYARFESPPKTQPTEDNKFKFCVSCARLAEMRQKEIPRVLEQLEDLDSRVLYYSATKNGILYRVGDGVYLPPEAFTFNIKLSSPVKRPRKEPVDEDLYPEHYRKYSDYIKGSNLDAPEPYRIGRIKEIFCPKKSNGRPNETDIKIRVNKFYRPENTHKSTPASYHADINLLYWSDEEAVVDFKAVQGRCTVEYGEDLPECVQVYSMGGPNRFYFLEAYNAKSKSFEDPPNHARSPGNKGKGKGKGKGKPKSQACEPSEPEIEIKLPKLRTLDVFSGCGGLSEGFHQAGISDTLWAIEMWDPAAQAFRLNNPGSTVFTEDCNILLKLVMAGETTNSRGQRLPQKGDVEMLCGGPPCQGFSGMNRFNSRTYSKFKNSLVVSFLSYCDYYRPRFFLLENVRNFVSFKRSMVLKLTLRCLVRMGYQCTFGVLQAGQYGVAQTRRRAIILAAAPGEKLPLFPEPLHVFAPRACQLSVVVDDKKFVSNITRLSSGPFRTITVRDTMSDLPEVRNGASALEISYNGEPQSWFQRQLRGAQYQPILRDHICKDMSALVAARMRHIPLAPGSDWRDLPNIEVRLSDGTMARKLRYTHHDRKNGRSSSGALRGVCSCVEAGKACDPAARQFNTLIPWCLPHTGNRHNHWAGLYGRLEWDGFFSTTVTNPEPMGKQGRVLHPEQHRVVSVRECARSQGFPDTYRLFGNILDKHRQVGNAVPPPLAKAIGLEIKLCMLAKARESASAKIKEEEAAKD

DNMT3B = DNMT3B (Homo sapiens (Human), UniProt Q9UBC3); test: DNMT3B breaklight assay; assay type: biochemical; settings: read-out: DNMT3B Breaklight IC50
[2] = test system: erythroid progenitor cells; settings: cited from earlier work
[3] = test system: patients with sickle cell anemia, sickle cell disease and beta-thalassemia; settings: limited set of clinical studies; cited from earlier work
human full length DNMT1 = human full length DNMT1 (Homo sapiens (Human), UniProt P26358); test: DNMT1 breaklight assay; assay type: biochemical; settings: repeated experimental runs, read-out: average IC50 against DNMT1
Chain of human full length DNMT1 (P26358 whole entry): as the sequence (P26358 whole entry, looked up) above
Method: DNMT1 breaklight in vitro assays were conducted in a total volume of 50 μl in a standard 384 well format, using black non-binding surface microplates (Corning 3575). Five μl of human full length DNMT1 (produced internally), used at a final concentration of 40 nM, was added to 5 μl of substrate mixture containing final concentrations of 125 nM hemi methylated oligonucleotide (synthesized at ATD Bio; 5′-FAM-[…]5[…]5G5TAGAT-3′ where 5=methyl deoxycitidine) and 2 μM ultrapure SAM (Cisbio #62SAHZLD). Negative control wells used 5 μl of DNMT1 and 5 μl of oligonucleotide but 0 μM SAM. All reagents were made up in 1× assay buffer (20 mM Tris pH 6.8, 25 mM NaCl, 0.5 mM MgCl2, 0.01% Triton X100 and 1 mM DTT). The reaction was incubated at 26° C. for 45 min and then stopped with the addition of 40 μl detection reagent. Detection reagent, made up in 1× Gla assay buffer (20 mM Tris pH 8.0, 80 mM NaCl, 0.75 mM MgCl2, 0.01% Triton X100 and 1 mM DTT) has a final concentration of 100 μM SAH (Sigma #A9384) and 0.0008 units/μl Gla1 restriction endonuclease (Sibenzyme #E494). Following addition of the detection reagent the plate was incubated in the dark at room temperature for 5 hr. Fluorescence intensity was then measured on the PHERAstar FS (BMG Labtech) at Ex 485 nm and Em 520 nm, with a gain of 400 and an integration time of 100 ms.

human DNMT3a/3l = human DNMT3a/3l (Homo sapiens (Human), UniProt Q9Y6K1); test: DNMT3a/3l breaklight assay; assay type: biochemical; settings: read-out: DNMT3A Breaklight IC50
Chain of human DNMT3a/3l (Q9Y6K1 whole entry, looked up): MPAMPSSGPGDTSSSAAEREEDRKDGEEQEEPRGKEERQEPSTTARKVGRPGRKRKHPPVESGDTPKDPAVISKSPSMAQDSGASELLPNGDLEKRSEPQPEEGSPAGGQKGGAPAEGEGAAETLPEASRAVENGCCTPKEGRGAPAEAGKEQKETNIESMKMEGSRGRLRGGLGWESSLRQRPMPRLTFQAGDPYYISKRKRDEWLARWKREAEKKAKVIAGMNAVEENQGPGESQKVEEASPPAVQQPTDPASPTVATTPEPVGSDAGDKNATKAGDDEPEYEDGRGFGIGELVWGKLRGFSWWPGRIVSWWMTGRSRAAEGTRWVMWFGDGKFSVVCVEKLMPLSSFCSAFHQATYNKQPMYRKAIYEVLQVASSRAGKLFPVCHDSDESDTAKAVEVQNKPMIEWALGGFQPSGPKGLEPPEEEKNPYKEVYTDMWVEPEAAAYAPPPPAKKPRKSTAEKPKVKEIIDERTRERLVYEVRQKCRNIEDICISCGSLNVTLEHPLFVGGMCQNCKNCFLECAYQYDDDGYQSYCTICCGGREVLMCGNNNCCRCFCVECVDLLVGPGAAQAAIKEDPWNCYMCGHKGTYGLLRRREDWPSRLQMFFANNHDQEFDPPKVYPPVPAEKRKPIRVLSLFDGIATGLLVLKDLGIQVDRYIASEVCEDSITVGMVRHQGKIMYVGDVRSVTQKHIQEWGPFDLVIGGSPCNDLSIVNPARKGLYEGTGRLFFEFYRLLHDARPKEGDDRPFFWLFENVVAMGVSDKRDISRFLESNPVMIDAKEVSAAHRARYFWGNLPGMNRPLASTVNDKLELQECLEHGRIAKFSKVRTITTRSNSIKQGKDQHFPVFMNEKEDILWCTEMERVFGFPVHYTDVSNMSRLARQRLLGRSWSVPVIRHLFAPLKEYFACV
Chain of human DNMT3a/3l (Q9UJW3 whole entry partner, looked up): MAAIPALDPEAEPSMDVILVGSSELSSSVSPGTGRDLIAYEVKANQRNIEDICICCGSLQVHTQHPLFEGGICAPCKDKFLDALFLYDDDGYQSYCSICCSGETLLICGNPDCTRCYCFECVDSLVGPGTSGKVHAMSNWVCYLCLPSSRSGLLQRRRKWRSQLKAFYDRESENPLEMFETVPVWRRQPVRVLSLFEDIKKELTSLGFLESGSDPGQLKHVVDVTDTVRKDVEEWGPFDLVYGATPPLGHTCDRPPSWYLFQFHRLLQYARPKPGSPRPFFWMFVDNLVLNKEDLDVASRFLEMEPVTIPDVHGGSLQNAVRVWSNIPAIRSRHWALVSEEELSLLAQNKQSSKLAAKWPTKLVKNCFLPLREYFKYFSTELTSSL
Method: DNMT3a/3l Breakliqht Assay
DNMT3a/3l breaklight in vitro assays were conducted in a total volume of 50 μl in a standard 384 well format, using black non-binding surface microplates (Corning #3575). […] Negative control wells used 5 μl of DNMT3a/3l and 5 μl of oligonucleotide but also included 200 μM SAH. All reagents were made up in 1× assay buffer (20 mM Tris pH 7.4, 100 mM NaCl, 1.5 mM EDTA, 0.1 mM MgCl2, 1 mM CHAPS and 1 mM DTT). The reaction was incubated at 37° C. for 90 min and then stopped with the addition of 40 μl detection reagent. Detection reagent, made up in 1× Gla assay buffer (20 mM Tris pH 8.0, 80 mM NaCl, 0.75 mM MgCl2, 0.01% Triton X100 and 1 mM DTT) has a final concentration of 200 μM SAH (Sigma #A9384) and 0.0008 units/μl Gla1 restriction endonuclease (Sibenzyme #E494). Following addition of the detection reagent the plate was incubated in the dark at room temperature for 5 hr. Fluorescence intensity was then measured on the PHERAstar FS (BMG Labtech) at Ex 485 nm and Em 520 nm, with a gain of 400 and an integration time of 100 ms.

[4] = binned activity in either the breaklight or the SPA assay
[5] = binned activity in either the breaklight or the SPA assay, read-out: DNMT1 BioChemical (pIC50 category) (converted)

Row | Compound | pEC50 (MV-4-11 AML cells) | EC50 [1] | DNMT1 BioChemical (pIC50 category) (DNMT1; [4]) | IC50 (DNMT1; [5]) | other results
1 | CCc1c(C#N)c(SC(C(N)=O)c2ccccc2)nc(N2CCC(C3CCNCC3)CC2)c1C#N (stereo not shown) [Example 122, 2-((6-([4,4′-Bipiperidin]-1-yl)-3,5-dicyano-4-ethylpyridin-2-yl)thio)-2-phenylacetamide; 2,2,2-trifluoroacetic acid] | 6.00 to 6.50 | < 0.316 µM | D (Category D: ≥6.5) |  | average pIC50 against DNMT1 (DNMT1; breaklight assay and/or SPA assay, repeated experimental runs): > 6.5
2 | CN(C)C1CCCN(c2nc(SC(C(N)=O)c3ccccc3)c(C#N)c(C3CC3)c2C#N)C1 (stereo not shown) [Example 18, 2-((3,5-Dicyano-4-cyclopropyl-6-(3-(dimethylamino)piperidin-1-yl)pyridin-2-yl)thio)-2-phenylacetamide] | 4.50 to 6.00 | < 0.316 µM | D (Category D: ≥6.5) |  | 
3 | N#Cc1c(SC(C(N)=O)c2ccncc2)nc(N2CCCNCC2)c(C#N)c1C1CC1 (stereo not shown) [Example 31, 2-((3,5-dicyano-4-cyclopropyl-6-(1,4-diazepan-1-yl)pyridin-2-yl)thio)-2-(pyridin-4-yl)acetamide] | 4.50 to 6.00 | > 31.6 µM |  | 0.316 to 1 µM | 
4 | CCc1c(C#N)c(SC(C(N)=O)c2ccccc2)nc(N2CCC3(CNC3)C2)c1C#N (stereo not shown) [Example 44, 2-((3,5-Dicyano-4-ethyl-6-(2,6-diazaspiro[3.4]octan-6-yl)pyridin-2-yl)thio)-2-phenylacetamide] | 4.50 to 6.00 | 1 to 31.6 µM | D (Category D: ≥6.5) |  | 
5 | CCc1c(C#N)c(SC(C(N)=O)c2ccccc2)nc(N2CCN(CCN)CC2)c1C#N (stereo not shown) [Example 123, 2-((6-(4-(2-Aminoethyl)piperazin-1-yl)-3,5-dicyano-4-ethylpyridin-2-yl)thio)-2-phenylacetamide] | 4.50 to 6.00 | < 0.316 µM | D (Category D: ≥6.5) |  | 
6 | CCc1c(C#N)c(SC(C(N)=O)c2ccccc2)nc(N(C)CC(N)=O)c1C#N (stereo not shown) [Example 145, 2-((6-((2-Amino-2-oxoethyl)(methyl)amino)-3,5-dicyano-4-ethylpyridin-2-yl)thio)-2-phenylacetamide] | > 6.50 | < 0.316 µM | D (Category D: ≥6.5) |  | 
7 | CCc1c(C#N)c(S[C@@H](C(N)=O)c2ccccc2)nc(N(C)C)c1C#N [Example 64, (R)-2-((3,5-dicyano-6-(dimethylamino)-4-ethylpyridin-2-yl)thio)-2-phenylacetamide] | 6.00 to 6.50 | < 0.316 µM |  |  | pIC50 (DNMT3B): < 3.30
8 | N#Cc1c(SC(C(N)=O)c2ccccc2)nc(N2CCCNCC2)c(C#N)c1C1CC1 (stereo not shown) [Example 4, 2-((3,5-dicyano-4-cyclopropyl-6-(1,4-diazepan-1-yl)pyridin-2-yl)thio)-2-phenylacetamide] | 4.50 to 6.00 | < 0.316 µM | D (Category D: ≥6.5) |  | 
9 | N#Cc1c(SC(C(N)=O)c2ccccc2)nc(N2CCC(N3CCCC3)CC2)c(C#N)c1C1CC1 (stereo not shown) [Example 42, 2-((3,5-Dicyano-4-cyclopropyl-6-(4-(pyrrolidin-1-yl)piperidin-1-yl)pyridin-2-yl)thio)-2-phenylacetamide trifluoroacetate] | 6.00 to 6.50 | < 0.316 µM | D (Category D: ≥6.5) |  | 
10 | CCc1c(C#N)c(N[C@@H](C(N)=O)c2ccccc2)nc(N2CCCN(CCO)CC2)c1C#N [Example 114, (2R)-2-({3,5-Dicyano-4-ethyl-6-[4-(2-hydroxyethyl)-1,4-diazepan-1-yl]pyridin-2-yl}amino)-2-phenylacetamide] | 4.50 to 6.00 | 1 to 31.6 µM |  | 0.316 to 1 µM | 
11 | Nc1ncn([C@H]2C[C@H](O)[C@@H](CO)O2)c(=O)n1 [5-aza-2′-deoxycytidine (decitabine), 5-aza-2′-deoxycytidine] |  |  |  |  | induction of fetal hemoglobin [2]: known inducers of fetal hemoglobin; fetal hemoglobin in patients [3]: caused increases in fetal hemoglobin
12 | CCc1c(C#N)c(SC(C(N)=O)c2ccccc2)nc(N2CCCN(CCO)CC2)c1C#N (stereo not shown) [Example 318, 2-((3,5-Dicyano-4-ethyl-6-(4-(2-hydroxyethyl)-1,4-diazepan-1-yl)pyridin-2-yl)thio)-2-phenylacetamide] | 6.00 to 6.50 | < 0.316 µM | D (Category D: ≥6.5) |  | 
13 | N#Cc1c(SC(C(N)=O)c2ccccc2)nc(N2CCCC(N)C2)c(C#N)c1C1CC1 (stereo not shown) [Example 25, 2-((6-(3-aminopiperidin-1-yl)-3,5-dicyano-4-cyclopropylpyridin-2-yl)thio)-2-phenylacetamide] |  | < 0.316 µM | D (Category D: ≥6.5) |  | pIC50 (human full length DNMT1): ≥ 6.30
14 | CN1CCN(c2nc(SC(C(N)=O)c3ccccc3)c(C#N)c(C3CC3)c2C#N)CC1=O (stereo not shown) [Example 22] |  | < 0.316 µM |  | 0.316 to 1 µM | pIC50 (human full length DNMT1): < 6.12
15 | CCCN1CCN(c2nc(SC(C(N)=O)c3ccccc3)c(C#N)c(CC)c2C#N)CC1 (stereo not shown) [Example 12, 2-{[3,5-dicyano-4-ethyl-6-(4-propylpiperazin-1-yl)pyridin-2-yl]sulfanyl}-2-phenylacetamide] |  | 0.316 to 1 µM |  | 0.316 to 1 µM | pIC50 (human full length DNMT1): ≥ 6.30
16 | N#Cc1c(SC(C(N)=O)c2ccccc2)nc(N2CCCC(O)C2)c(C#N)c1C1CC1 (stereo not shown) [Example 164, 2-(3,5-Dicyano-4-cyclopropyl-6-(3-hydroxypiperidin-1-yl)pyridin-2-ylthio)-2-phenylacetamide] | 4.50 to 6.00 | 0.316 to 1 µM |  | 0.316 to 1 µM | 
17 | N#Cc1c(SC(C(N)=O)c2ccncc2)nc(N2CC[C@H](O)C2)c(C#N)c1C1CC1 (stereo partly drawn) [Example 34, 2-((3,5-dicyano-4-cyclopropyl-6-((S)-3-hydroxypyrrolidin-1-yl)pyridin-2-yl)thio)-2-(pyridin-4-yl)acetamide] | 4.50 to 6.00 | 1 to 31.6 µM |  | 0.316 to 1 µM | 
18 | N#Cc1c(SC(C(N)=O)c2ccccc2)nc(N2CCOCC2)c(C#N)c1C1CC1 (stereo not shown) [Example 130, 2-[(3,5-Dicyano-4-cyclopropyl-6-morpholino-2-pyridyl)sulfanyl]-2-phenyl-acetamide] | 4.50 to 6.00 |  |  | 0.316 to 1 µM | pIC50 (human DNMT3a/3l): < 3.30; pIC50 (DNMT3B): < 3.30; IC50 (DNMT1; breaklight assay and/or SPA assay, repeated experimental runs, read-out: average pIC50 against DNMT1 (converted)): 0.316 to 1 µM
19 | Nc1ncn([C@@H]2O[C@H](CO)[C@@H](O)[C@H]2O)c(=O)n1 [5-azacytidine] |  |  |  |  | induction of fetal hemoglobin [2]: known inducers of fetal hemoglobin; fetal hemoglobin in patients [3]: caused increases in fetal hemoglobin
